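Grown in 96-well plates, cells were treated for 48 hours with each compound at five concentrations. Insufficient inhibition: endpoint recorded as highest concentration tested. GI50 marks 50% less growth. TGI denotes the concentration required for complete inhibition of growth.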
Columns and labels:
Assay in all cases: DTP human tumour cell line panel, 48 h
HOP-92 NSCLC = tested on: HOP-92 NSCLC
OVCAR-5 ovarian = tested on: OVCAR-5 ovarian
MCF7 breast = tested on: MCF7 breast
OVCAR-3 ovarian = tested on: OVCAR-3 ovarian
UACC-257 melanoma = tested on: UACC-257 melanoma
HOP-62 NSCLC = tested on: HOP-62 NSCLC
UO-31 renal = tested on: UO-31 renal
HL-60(TB) leukemia = tested on: HL-60(TB) leukemia
RPMI-8226 leukemia = tested on: RPMI-8226 leukemia
T-47D breast = tested on: T-47D breast
RXF 393 renal = tested on: RXF 393 renal
NCI-H522 lung = tested on: NCI-H522 lung
786-0 renal = tested on: 786-0 renal
TK-10 renal = tested on: TK-10 renal
HT29 colon = tested on: HT29 colon
HCT-116 colon = tested on: HCT-116 colon
SR leukemia = tested on: SR leukemia
HCC-2998 colon = tested on: HCC-2998 colon
SNB-19 CNS = tested on: SNB-19 CNS
UACC-62 melanoma = tested on: UACC-62 melanoma
PC-3 prostate = tested on: PC-3 prostate
SF-295 CNS = tested on: SF-295 CNS
SW-620 colon = tested on: SW-620 colon
SK-MEL-2 melanoma = tested on: SK-MEL-2 melanoma
MALME-3M melanoma = tested on: MALME-3M melanoma
SF-539 CNS = tested on: SF-539 CNS
U251 CNS = tested on: U251 CNS
IGROV1 ovarian = tested on: IGROV1 ovarian
HCT-15 colon = tested on: HCT-15 colon
SK-MEL-28 melanoma = tested on: SK-MEL-28 melanoma
K-562 leukemia = tested on: K-562 leukemia
ACHN renal = tested on: ACHN renal
SK-MEL-5 melanoma = tested on: SK-MEL-5 melanoma
MOLT-4 leukemia = tested on: MOLT-4 leukemia
CAKI-1 renal = tested on: CAKI-1 renal
SNB-75 CNS = tested on: SNB-75 CNS
A498 renal = tested on: A498 renal
COLO 205 colon = tested on: COLO 205 colon
KM12 colon = tested on: KM12 colon
BT-549 breast = tested on: BT-549 breast
MDA-MB-231 breast = tested on: MDA-MB-231 breast
OVCAR-4 ovarian = tested on: OVCAR-4 ovarian
SF-268 CNS = tested on: SF-268 CNS
HS 578T breast = tested on: HS 578T breast
MDA-MB-435 = tested on: MDA-MB-435
A549 NSCLC = tested on: A549 NSCLC
NCI-H460 lung = tested on: NCI-H460 lung
SN12C renal = tested on: SN12C renal
CCRF-CEM leukemia = tested on: CCRF-CEM leukemia
SK-OV-3 ovarian = tested on: SK-OV-3 ovarian
M14 melanoma = tested on: M14 melanoma
NCI-H226 lung = tested on: NCI-H226 lung
LOX IMVI melanoma = tested on: LOX IMVI melanoma
MDA-MB-468 breast = tested on: MDA-MB-468 breast
NCI-H23 lung = tested on: NCI-H23 lung
DU-145 prostate = tested on: DU-145 prostate
EKVX NSCLC = tested on: EKVX NSCLC

CNC(=O)c1cc(Oc2ccc3nc(NC(=O)Nc4cccc(OC(F)(F)F)c4)sc3c2)ccn1
GI50 (HOP-92 NSCLC): 1.66 µM
TGI (HOP-92 NSCLC): 4.46 µM
GI50 (OVCAR-5 ovarian): 5.58 µM
TGI (OVCAR-5 ovarian): > 100 µM
GI50 (MCF7 breast): 8.31 µM
TGI (MCF7 breast): > 100 µM
GI50 (OVCAR-3 ovarian): 3.27 µM
TGI (OVCAR-3 ovarian): > 100 µM
GI50 (UACC-257 melanoma): 5.89 µM
TGI (UACC-257 melanoma): > 100 µM
GI50 (HOP-62 NSCLC): 1.72 µM
TGI (HOP-62 NSCLC): 3.47 µM
GI50 (UO-31 renal): 3.93 µM
TGI (UO-31 renal): > 100 µM
GI50 (HL-60(TB) leukemia): > 100 µM
TGI (HL-60(TB) leukemia): > 100 µM
GI50 (RPMI-8226 leukemia): > 100 µM
TGI (RPMI-8226 leukemia): > 100 µM
GI50 (T-47D breast): 5.08 µM
TGI (T-47D breast): > 100 µM
GI50 (RXF 393 renal): 1.91 µM
TGI (RXF 393 renal): 4.82 µM
GI50 (NCI-H522 lung): 3.5 µM
TGI (NCI-H522 lung): > 100 µM
GI50 (786-0 renal): 2.71 µM
TGI (786-0 renal): 7.41 µM
GI50 (TK-10 renal): 4.09 µM
TGI (TK-10 renal): 13.2 µM
GI50 (HT29 colon): 7.9 µM
TGI (HT29 colon): > 100 µM
GI50 (HCT-116 colon): 4.67 µM
TGI (HCT-116 colon): > 100 µM
GI50 (SR leukemia): > 100 µM
TGI (SR leukemia): > 100 µM
GI50 (HCC-2998 colon): 8.69 µM
TGI (HCC-2998 colon): > 100 µM
GI50 (SNB-19 CNS): 2.22 µM
TGI (SNB-19 CNS): 5.55 µM
GI50 (UACC-62 melanoma): 2.07 µM
TGI (UACC-62 melanoma): 13.3 µM
GI50 (PC-3 prostate): 2.22 µM
TGI (PC-3 prostate): > 100 µM
GI50 (SF-295 CNS): 1.7 µM
TGI (SF-295 CNS): 4.17 µM
GI50 (SW-620 colon): 4.94 µM
TGI (SW-620 colon): > 100 µM
GI50 (SK-MEL-2 melanoma): 2.51 µM
TGI (SK-MEL-2 melanoma): 8.12 µM
GI50 (MALME-3M melanoma): 1.82 µM
TGI (MALME-3M melanoma): 5.3 µM
GI50 (SF-539 CNS): 3.07 µM
TGI (SF-539 CNS): 10.2 µM
GI50 (U251 CNS): 2.43 µM
TGI (U251 CNS): 6.27 µM
GI50 (IGROV1 ovarian): 4.65 µM
TGI (IGROV1 ovarian): 21.6 µM
GI50 (HCT-15 colon): 4.07 µM
TGI (HCT-15 colon): > 100 µM
GI50 (SK-MEL-28 melanoma): 2.66 µM
TGI (SK-MEL-28 melanoma): > 100 µM
GI50 (K-562 leukemia): 5.51 µM
TGI (K-562 leukemia): > 100 µM
GI50 (ACHN renal): 2.32 µM
TGI (ACHN renal): 7.26 µM
GI50 (SK-MEL-5 melanoma): 3.08 µM
TGI (SK-MEL-5 melanoma): > 100 µM
GI50 (MOLT-4 leukemia): > 100 µM
TGI (MOLT-4 leukemia): > 100 µM
GI50 (CAKI-1 renal): 2.01 µM
TGI (CAKI-1 renal): 4.72 µM
GI50 (SNB-75 CNS): 2.34 µM
TGI (SNB-75 CNS): 5.52 µM
GI50 (A498 renal): 4.25 µM
TGI (A498 renal): 9.77 µM
GI50 (COLO 205 colon): 5.43 µM
TGI (COLO 205 colon): > 100 µM
GI50 (KM12 colon): 0.809 µM
TGI (KM12 colon): > 100 µM
GI50 (BT-549 breast): 3.21 µM
TGI (BT-549 breast): 9.02 µM
GI50 (MDA-MB-231 breast): 2.37 µM
TGI (MDA-MB-231 breast): 10.9 µM
GI50 (OVCAR-4 ovarian): 2.97 µM
TGI (OVCAR-4 ovarian): 9.23 µM
GI50 (SF-268 CNS): 4.3 µM
TGI (SF-268 CNS): 89 µM
GI50 (HS 578T breast): 2.29 µM
TGI (HS 578T breast): 7.09 µM
GI50 (MDA-MB-435): 4.27 µM
TGI (MDA-MB-435): > 100 µM
GI50 (A549 NSCLC): 2.69 µM
TGI (A549 NSCLC): > 100 µM
GI50 (NCI-H460 lung): 2.58 µM
TGI (NCI-H460 lung): > 100 µM
GI50 (SN12C renal): 5.11 µM
TGI (SN12C renal): > 100 µM
GI50 (CCRF-CEM leukemia): 9.07 µM
TGI (CCRF-CEM leukemia): > 100 µM
GI50 (SK-OV-3 ovarian): 3 µM
TGI (SK-OV-3 ovarian): 6.83 µM
GI50 (M14 melanoma): 5.76 µM
TGI (M14 melanoma): > 100 µM
GI50 (NCI-H226 lung): 2.56 µM
TGI (NCI-H226 lung): 6.14 µM
GI50 (LOX IMVI melanoma): 4.15 µM
TGI (LOX IMVI melanoma): 23.6 µM
GI50 (MDA-MB-468 breast): 2.16 µM
TGI (MDA-MB-468 breast): 13.5 µM
GI50 (NCI-H23 lung): 2.91 µM
TGI (NCI-H23 lung): 11.9 µM
GI50 (DU-145 prostate): 3.64 µM
TGI (DU-145 prostate): > 100 µM
GI50 (EKVX NSCLC): 3.56 µM
TGI (EKVX NSCLC): > 100 µM

CSc1ccc(C(=O)Nc2ccc3nnn(/C(C#N)=C/c4ccccn4)c3c2)cc1
GI50 (HOP-92 NSCLC): 1.79 µM
TGI (HOP-92 NSCLC): 4.62 µM
GI50 (OVCAR-5 ovarian): 1.75 µM
TGI (OVCAR-5 ovarian): 3.19 µM
GI50 (MCF7 breast): 1.28 µM
TGI (MCF7 breast): 2.72 µM
GI50 (HOP-62 NSCLC): 3.11 µM
TGI (HOP-62 NSCLC): 12.6 µM
GI50 (UO-31 renal): 1.37 µM
TGI (UO-31 renal): 2.65 µM
GI50 (HL-60(TB) leukemia): 2.67 µM
TGI (HL-60(TB) leukemia): > 100 µM
GI50 (RXF 393 renal): 1.5 µM
TGI (RXF 393 renal): 2.84 µM
GI50 (TK-10 renal): 1.66 µM
TGI (TK-10 renal): 3.11 µM
GI50 (SR leukemia): 2.75 µM
TGI (SR leukemia): > 100 µM
GI50 (HCC-2998 colon): 1.79 µM
TGI (HCC-2998 colon): 3.26 µM
GI50 (SNB-19 CNS): 3.14 µM
TGI (SNB-19 CNS): 12.1 µM
GI50 (UACC-62 melanoma): 1.68 µM
TGI (UACC-62 melanoma): 3.35 µM
GI50 (PC-3 prostate): 2.74 µM
TGI (PC-3 prostate): 7.14 µM
GI50 (SF-295 CNS): 6.89 µM
TGI (SF-295 CNS): 21.4 µM
GI50 (SF-539 CNS): 1.66 µM
TGI (SF-539 CNS): 3.05 µM
GI50 (IGROV1 ovarian): 1.91 µM
TGI (IGROV1 ovarian): 3.8 µM
GI50 (HCT-15 colon): 1.66 µM
TGI (HCT-15 colon): 3.53 µM
GI50 (SK-MEL-28 melanoma): 1.68 µM
TGI (SK-MEL-28 melanoma): 3.11 µM
GI50 (K-562 leukemia): 2.53 µM
TGI (K-562 leukemia): > 100 µM
GI50 (ACHN renal): 1.74 µM
TGI (ACHN renal): 3.11 µM
GI50 (SK-MEL-5 melanoma): 2.01 µM
TGI (SK-MEL-5 melanoma): 4.79 µM
GI50 (MOLT-4 leukemia): 3.57 µM
TGI (MOLT-4 leukemia): > 100 µM
GI50 (CAKI-1 renal): 1.33 µM
TGI (CAKI-1 renal): 2.65 µM
GI50 (SNB-75 CNS): 3.97 µM
TGI (SNB-75 CNS): 25.4 µM
GI50 (A498 renal): 13.2 µM
TGI (A498 renal): 53.3 µM
GI50 (KM12 colon): 1.94 µM
TGI (KM12 colon): 4.65 µM
GI50 (MDA-MB-231 breast): 1.76 µM
TGI (MDA-MB-231 breast): 3.23 µM
GI50 (OVCAR-4 ovarian): 4.53 µM
TGI (OVCAR-4 ovarian): > 100 µM
GI50 (SF-268 CNS): 4.16 µM
TGI (SF-268 CNS): 45.3 µM
GI50 (HS 578T breast): 2.51 µM
TGI (HS 578T breast): 7.12 µM
GI50 (A549 NSCLC): 3.46 µM
TGI (A549 NSCLC): > 100 µM
GI50 (NCI-H460 lung): 2.2 µM
TGI (NCI-H460 lung): 4.35 µM
GI50 (SN12C renal): 2.13 µM
TGI (SN12C renal): 4.97 µM
GI50 (CCRF-CEM leukemia): 2.1 µM
TGI (CCRF-CEM leukemia): > 100 µM
GI50 (SK-OV-3 ovarian): 24.5 µM
TGI (SK-OV-3 ovarian): > 100 µM
GI50 (NCI-H226 lung): 3.76 µM
TGI (NCI-H226 lung): 26.9 µM
GI50 (LOX IMVI melanoma): 1.52 µM
TGI (LOX IMVI melanoma): 2.92 µM
GI50 (MDA-MB-468 breast): 1.31 µM
TGI (MDA-MB-468 breast): 2.91 µM
GI50 (NCI-H23 lung): 1.78 µM
TGI (NCI-H23 lung): 3.5 µM
GI50 (EKVX NSCLC): 2.15 µM
TGI (EKVX NSCLC): 4.89 µM
